# From article PMC9475448, “What a difference a methylene makes: replacing Glu with Asp or Aad in the Lys-urea-Glu pharmacophore of PSMA-targeting radioligands to reduce kidney and salivary gland uptake” (Theranostics, 2022)
# “And” between values parts separate entries of the source, which are not always exact repeats. Equal values may be shown once.
# Test system: LNCaP tumor-bearing mice
# Test: Ex vivo biodistribution of 68Ga-labeled ligands in LNCaP tumor-bearing NSG mice
# [1] = 1 h post-injection, listed as [68Ga]Ga-HTK03161
# [2] = 1 h blocked, co-injected with DCFPyL (0.5 mg)
# [3] = 1 h post-injection, listed as [68Ga]Ga-HTK03149
# [4] = co-injection of DCFPyL (0.5 mg), 1 h post-injection
# [5] = 1 h post-injection, listed as [68Ga]Ga-HTK03189B
structure (smiles),measurement,setting,value
O=C([O-])CN1CCN(CC(=O)[O-])CCN(CC(=O)NCC2CCC(C(=O)NC(Cc3c4ccccc4cc4ccccc34)C(=O)NCCCCC(NC(=O)NC(CC(=O)O)C(=O)O)C(=O)O)CC2)CCN(CC(=O)[O-])CC1.[68Ga+3] (stereo not shown) [[^68Ga]Ga-HTK03161],Adrenal glands uptake,1 h post-injection,0.41 ± 0.07 %IA/g
same,Blood uptake,1 h post-injection,1.13 ± 0.19 %IA/g
same,Blood:Salivary gland uptake ratio,1 h post-injection,5.08±0.62
same,Bone uptake,1 h post-injection,0.11 ± 0.02 %IA/g
same,Brain uptake,1 h post-injection,0.02 ± 0.00 %IA/g
same,Fat uptake,1 h post-injection,0.15 ± 0.04 %IA/g
same,Heart uptake,1 h post-injection,0.32 ± 0.05 %IA/g
same,Intestines uptake,1 h post-injection,0.31 ± 0.09 %IA/g
same,Kidneys uptake,1 h post-injection,4.41±1.26 %IA/g
same,Lacrimal glands uptake,1 h post-injection,0.12 ± 0.06 %IA/g
same,Liver uptake,1 h post-injection,0.28 ± 0.05 %IA/g
same,Lungs uptake,1 h post-injection,0.75 ± 0.13 %IA/g
same,Muscle uptake,1 h post-injection,0.15 ± 0.04 %IA/g
same,Pancreas uptake,1 h post-injection,0.18 ± 0.03 %IA/g
same,Salivary glands uptake,1 h post-injection,0.23±0.05 %IA/g
same,Spleen uptake,1 h post-injection,0.27 ± 0.06 %IA/g
same,Stomach uptake,1 h post-injection,0.10 ± 0.04 %IA/g
same,Testes uptake,1 h post-injection,0.54 ± 0.51 %IA/g
same,Thyroid uptake,1 h post-injection,0.29 ± 0.05 %IA/g
same,Tumor uptake,1 h post-injection,12.7±1.91 %IA/g
same,Tumor:Blood uptake ratio,1 h post-injection,11.4 ± 1.73
same,Tumor:Kidney uptake ratio,1 h post-injection,3.03 ± 0.84
same,Tumor:Muscle uptake ratio,1 h post-injection,89.4 ± 36.1
same,Tumor:Salivary gland uptake ratio,1 h post-injection,57.2 ± 7.11
same,Kidneys uptake,[1],4.41 ± 1.26 %IA/g
same,Salivary glands uptake,[1],0.23 ± 0.05 %IA/g
same,Tumor uptake,[1],12.7 ± 1.91 %IA/g
O=C([O-])CN1CCN(CC(=O)[O-])CCN(CC(=O)NCC2CCC(C(=O)NC(Cc3c4ccccc4cc4ccccc34)C(=O)NCCCCC(NC(=O)NC(CCCC(=O)O)C(=O)O)C(=O)O)CC2)CCN(CC(=O)[O-])CC1.[68Ga+3] (stereo not shown) [[^68Ga]Ga-HTK03149],Adrenal glands uptake,[2],0.22 ± 0.03 %IA/g
same,Blood uptake,[2],0.67 ± 0.04 %IA/g
same,Blood:Salivary gland uptake ratio,[2],4.80 ± 0.54
same,Bone uptake,[2],0.07 ± 0.01 %IA/g
same,Brain uptake,[2],0.02 ± 0.00 %IA/g
same,Fat uptake,[2],0.08 ± 0.01 %IA/g
same,Heart uptake,[2],0.19 ± 0.01 %IA/g
same,Intestines uptake,[2],0.21 ± 0.04 %IA/g
same,Kidneys uptake,[2],1.93 ± 0.39 %IA/g
same,Lacrimal glands uptake,[2],0.14 ± 0.08 %IA/g
same,Liver uptake,[2],0.22 ± 0.03 %IA/g
same,Lungs uptake,[2],0.49 ± 0.03 %IA/g
same,Muscle uptake,[2],0.08 ± 0.01 %IA/g
same,Pancreas uptake,[2],0.12 ± 0.01 %IA/g
same,Salivary glands uptake,[2],0.14 ± 0.01 %IA/g
same,Spleen uptake,[2],0.15 ± 0.04 %IA/g
same,Stomach uptake,[2],0.04 ± 0.00 %IA/g
same,Testes uptake,[2],0.19 ± 0.02 %IA/g
same,Thyroid uptake,[2],0.18 ± 0.01 %IA/g
same,Tumor uptake,[2],0.77 ± 0.06 %IA/g
same,Tumor:Blood uptake ratio,[2],1.16 ± 0.13
same,Tumor:Kidney uptake ratio,[2],0.41 ± 0.09
same,Tumor:Muscle uptake ratio,[2],7.18 ± 3.58
same,Tumor:Salivary gland uptake ratio,[2],5.53 ± 0.39
same,Adrenal glands uptake,1 h post-injection,0.33 ± 0.11 %IA/g
same,Blood uptake,1 h post-injection,0.70 ± 0.17 %IA/g
same,Blood:Salivary gland uptake ratio,1 h post-injection,3.21±0.64
same,Bone uptake,1 h post-injection,0.11 ± 0.04 %IA/g
same,Brain uptake,1 h post-injection,0.02 ± 0.00 %IA/g
same,Fat uptake,1 h post-injection,0.17 ± 0.15 %IA/g
same,Heart uptake,1 h post-injection,0.21 ± 0.03 %IA/g
same,Intestines uptake,1 h post-injection,0.24 ± 0.05 %IA/g
same,Kidneys uptake,1 h post-injection,4.15±1.46 %IA/g
same,Lacrimal glands uptake,1 h post-injection,0.15 ± 0.09 %IA/g
same,Liver uptake,1 h post-injection,0.25 ± 0.06 %IA/g
same,Lungs uptake,1 h post-injection,0.53 ± 0.09 %IA/g
same,Muscle uptake,1 h post-injection,0.11 ± 0.04 %IA/g
same,Pancreas uptake,1 h post-injection,0.13 ± 0.02 %IA/g
same,Salivary glands uptake,1 h post-injection,0.22±0.06 %IA/g
same,Spleen uptake,1 h post-injection,0.27 ± 0.05 %IA/g
same,Stomach uptake,1 h post-injection,0.07 ± 0.01 %IA/g
same,Testes uptake,1 h post-injection,0.23 ± 0.13 %IA/g
same,Thyroid uptake,1 h post-injection,0.20 ± 0.05 %IA/g
same,Tumor uptake,1 h post-injection,19.1±6.37 %IA/g
same,Tumor:Blood uptake ratio,1 h post-injection,29.5±15.8
same,Tumor:Kidney uptake ratio,1 h post-injection,5.44±3.88 and > 5.0
same,Tumor:Muscle uptake ratio,1 h post-injection,185±79.6
same,Tumor:Salivary gland uptake ratio,1 h post-injection,97.3±59.2
same,Kidneys uptake,[3],4.15 ± 1.46 %IA/g
same,Salivary glands uptake,[3],0.22 ± 0.06 %IA/g
same,Tumor uptake,[3],19.1 ± 6.37 %IA/g
same,Reduction of average uptake in LNCaP tumor xenografts by blocking,[4],96%
same,Reduction of average uptake in kidneys by blocking,[4],53%
same,Reduction of average uptake in salivary glands by blocking,[4],36%
"O=C([O-])CN1CCN(CC(=O)[O-])CCN(CC(=O)NCC2CCC(C(=O)NC(Cc3c4ccccc4cc4ccccc34)C(=O)NCCCCC(NC(=O)NC(CCCCC(=O)O)C(=O)O)C(=O)O)CC2)CCN(CC(=O)[O-])CC1.[68Ga+3] (single isomer, unassigned) [[^68Ga]Ga-HTK03189B]",Tumor uptake,1 h post-injection,0.67±0.15 %IA/g
same,Adrenal glands uptake,[5],0.37 ± 0.15 %IA/g
same,Blood uptake,[5],1.06 ± 0.25 %IA/g
same,Blood:Salivary gland uptake ratio,[5],4.86 ± 1.16
same,Bone uptake,[5],0.10 ± 0.02 %IA/g
same,Brain uptake,[5],0.03 ± 0.00 %IA/g
same,Fat uptake,[5],0.17 ± 0.10 %IA/g
same,Heart uptake,[5],0.30 ± 0.06 %IA/g
same,Intestines uptake,[5],0.28 ± 0.07 %IA/g
same,Kidneys uptake,[5],2.13 ± 0.45 %IA/g
same,Lacrimal glands uptake,[5],0.13 ± 0.04 %IA/g
same,Liver uptake,[5],0.39 ± 0.08 %IA/g
same,Lungs uptake,[5],0.82 ± 0.22 %IA/g
same,Muscle uptake,[5],0.12 ± 0.03 %IA/g
same,Pancreas uptake,[5],0.18 ± 0.05 %IA/g
same,Salivary glands uptake,[5],0.22 ± 0.04 %IA/g
same,Spleen uptake,[5],0.20 ± 0.05 %IA/g
same,Stomach uptake,[5],0.11 ± 0.03 %IA/g
same,Testes uptake,[5],0.26 ± 0.05 %IA/g
same,Thyroid uptake,[5],0.29 ± 0.08 %IA/g
same,Tumor uptake,[5],0.67 ± 0.15 %IA/g
same,Tumor:Blood uptake ratio,[5],0.65 ± 0.15
same,Tumor:Kidney uptake ratio,[5],0.32 ± 0.05
same,Tumor:Muscle uptake ratio,[5],5.68 ± 1.12
same,Tumor:Salivary gland uptake ratio,[5],3.08 ± 0.53
